Source: article PMC7031697, “Mechanism of Activation of AMPK by Cordycepin” (Cell Chemical Biology, 2020)

Legend:
[1] = molecular target: T1, AMPK complexes containing WT γ2 (Homo sapiens, UniProt Q9UGJ0); test: AMPK activity in anti-FLAG immunoprecipitates, HepG2 cells with FLAG-tagged WT AMPK-γ2; format: cell-based; conditions: 1 h, 300 μM cordycepin, 10 mM phenformin or 300 μM A-769662
T1 construct: expressed in transfected cells; host or cells: HepG2 (transient, Fugene 6)
Procedure: HepG2 cells ([…]) were cultured in Minimum Essential Medium (MEM) supplemented with 10% (v/v) FBS, 1% (v/v) non-essential amino acids and 1% (v/v) penicillin/streptomycin. Transient transfection of DNAs encoding FLAG-tagged AMPK-γ2 or an R531G mutant of AMPK-γ2 were carried out 36-48 hr prior to experiments using Fugene 6 according to manufacturers’ instructions. U2OS cells ([…]) were cultured in Dulbecco’s Modified Eagle’s Medium (DMEM) supplemented with 10% (v/v) FBS and 1% (v/v) penicillin/streptomycin.
HepG2 cells were transiently transfected with DNAs encoding FLAG-tagged wild type AMPK-γ2 or the R531G mutant, using Fugene 6 according to the manufacturers’ instructions. After transfection for 48 hr, cells were treated with various agents as described, and cell lysates prepared ([Hawley et al., 2018]). FLAG-tagged AMPK was then immunoprecipitated from 150 μg total protein by incubation at 4°C for 2 hr on a roller mixer with 9 μl of EZview Red anti-FLAG M2 affinity gel. After extensive washing, the immunoprecipitates were assayed for AMPK activity (50 μg per assay in a total volume of 50 μl) using the AMARA peptide (200 μM) as substrate in the presence of 200 μM AMP, 5 mM MgCl2 and 200 μM γ-^32P-ATP as described previously ([Fyffe et al., 2018]).

[2] = Measurement of cordycepin in cell medium of HepG2 cells (LC-MS); format: in vitro ADME, human; conditions: human, 100 μM added
Procedure: (§1) The same LC-MS system was used to detect and quantify cordycepin. LC conditions were optimized using a TSKgel Amine-80 Column (100 × 1 mm, ID 5 μm, Part No.0020010, TOSOH Bioscience). Mobile phase buffer A consisted of 0.1% (v/v) formic acid and buffer B was in 80% (v/v) acetonitrile. The column was maintained at 40°C and was equilibrated with 98% buffer B for 5 min at a constant flow rate of 0.05 mL/min. Samples were diluted 1/1500 and aliquots of 4 μL of each sample loaded onto the column. Cordycepin was eluted by decreasing buffer B from 98% to 85% within 2 min and then to 10% within 5 min. Eluents were sprayed into the TSQ Quantiva which was run in positive mode with a spray voltage of 2700, sheath gas 40, aux gas 20, sweep gas 2. Levels of cordycepin were measured using multiple reaction monitoring mode (MRM) with optimized collision energies and radio frequencies previously determined by infusing pure compound. One transition (252 > 136) was used to detect and monitor cordycepin.

HepG2 cells [3] = test: as above; format: in vitro ADME, human; conditions: 100 μM added
Procedure: as §1

AMPK = test: Phosphorylation of AMPK, ACC and Raptor in HepG2 cells (western blotting); format: cell-based, human; conditions: cordycepin at 100 μM and above, 1 h
Procedure: SDS-PAGE for AMPK and Raptor was performed using precast Bis-Tris 4–12% gradient polyacrylamide gels in the MOPS buffer system (Invitrogen). SDS-PAGE for ACC was performed using precast Tris-Acetate 3–8% gradient polyacrylamide gels in the Tris-Acetate buffer system (Invitrogen). Proteins were transferred to nitrocellulose membranes using the iBlot2 system (Invitrogen). Membranes were blocked for 1 hr in Li-Cor Odyssey blocking buffer. The membranes were probed with appropriate antibody (0.1–1 μg/ml) in Li-Cor Odyssey blocking buffer, except where the blotting enhancement system was used (Thermo Scientific; as per manufacturers’ instructions). Detection was performed using secondary antibody (1 μg/ml) coupled to IR 680 or IR 800 dye, or IR-streptavidin 800 dye, and the membranes were scanned using the Li-Cor Odyssey IR imager. Protein concentrations were determined by Coomassie Blue binding with bovine serum albumin as standard ([Bradford, 1976]).

HepG2 cells [4] = test: Cellular content of adenine and cordycepin nucleotides by LC-MS; format: cell-based, human; conditions: 1 h
Procedure: After treatment, cells for nucleotide analysis were lysed in 70% perchloric acid and the acid extracted as described previously ([Hawley et al., 2010]). The levels of AMP, ADP, ATP, CoMP, CoDP and CoTP were measured using a TSQ Quantiva (with an ion Max NG source) interfaced with an Ultimate 3000 Liquid Chromatography system (ThermoScientific). Separation of all compounds was achieved using a porous graphitic carbon column (HyperCarb 30x1 mm ID […]; Part No: C-35003-031030, Thermo-Scientific) as described previously ([Ross et al., 2017]) with some modifications. Mobile phase buffer A consisted of 0.3% (v/v) formic acid adjusted to pH 9 with ammonia prior to a 1:10 dilution. Mobile phase buffer B was 80% (v/v) acetonitrile. The column was maintained at a controlled temperature of 40°C and equilibrated with 10% buffer B for 5 min at a constant flow rate of 0.05 mL/min. Aliquots of 1μL of each sample were loaded onto the column and compounds eluted with a linear gradient from 10% buffer B to 12% buffer B within 1 min, then 12% B to 100% B within 2 min; the column was then washed for 4 min with 100% Buffer B. Eluents were sprayed into the TSQ Quantiva using Ion Max NG ion source with ion transfer tube temperature at 350°C and vaporizer temperature 30°C. The TSQ Quantiva was run in negative mode with a spray voltage of 3500, sheath gas 40, aux gas 20 and sweep gas 2. Levels of ATP, ADP and AMP were measured using multiple reactions monitoring mode (MRM) with transitions described previously ([Ross et al., 2017]). For CoMP, CoDP and CoTP, optimised collision energies and radio frequencies were determined by infusing the pure compounds. Two transitions were used to monitor each of the three compounds, CoMP (330.22>134.01, 330.22>195.11), CoDP (410>256.67, 410>392.0) and CoTP (490>158.89, 490.11>472.11).

[5] = system: wild-type (WT) U2OS cells; test: Clonal survival assay, wild-type U2OS; format: cell-based; conditions: Homo sapiens, 8 h incubation, read-out: half-maximal effect on clonal survival
Procedure: Cells were seeded into 6-well plates at equal density and treated in triplicate at 40% to 60% confluence with vehicle or cordycepin for the indicated time. Cells were trypsinized in 1 ml trypsin:EDTA for 5 min and diluted in 1 ml of complete medium. Cells in control wells were counted using a hemocytometer and 1000 cells from vehicle and cordycepin-treated wells were seeded in triplicate into 10 cm dishes containing 10 ml of medium. The dishes were incubated at 37°C for 10-15 days. On the last day, the medium was decanted, cells fixed with ice-cold methanol for 10 min and stained with 10% v/v Giemsa stain in water for 15 min. The dishes were washed with water and the number of colonies counted manually.

T1 sequence (Q9UGJ0 whole entry, one chain of several): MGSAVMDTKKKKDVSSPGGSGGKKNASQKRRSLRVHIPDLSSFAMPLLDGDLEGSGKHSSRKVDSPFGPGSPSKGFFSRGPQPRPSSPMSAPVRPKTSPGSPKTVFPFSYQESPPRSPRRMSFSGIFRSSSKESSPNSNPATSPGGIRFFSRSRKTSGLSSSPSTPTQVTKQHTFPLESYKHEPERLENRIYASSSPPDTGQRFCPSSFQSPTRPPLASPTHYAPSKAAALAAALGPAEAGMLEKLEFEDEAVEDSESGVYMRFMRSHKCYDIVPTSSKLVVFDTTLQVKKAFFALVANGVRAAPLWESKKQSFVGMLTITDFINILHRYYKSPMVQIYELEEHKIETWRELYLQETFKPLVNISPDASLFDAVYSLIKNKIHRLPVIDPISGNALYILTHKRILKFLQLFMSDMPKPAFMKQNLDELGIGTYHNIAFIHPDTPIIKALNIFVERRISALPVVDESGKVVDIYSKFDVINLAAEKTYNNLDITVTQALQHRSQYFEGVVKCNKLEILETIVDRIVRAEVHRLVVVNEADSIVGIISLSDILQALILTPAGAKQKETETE

Compound: Nc1ncnc2c1ncn2[C@@H]1O[C@H](CO)C[C@H]1O [cordycepin, 3′-deoxyadenosine]
- activation of AMPK complexes containing WT γ2 [1]: activated
- half-life at 100 μM [2]: ~1.33 h
- decline of cordycepin in the medium (HepG2 cells [3]; by 2 h): 70%
- cordycepin remaining in the medium (HepG2 cells [3]; by 4 h): almost disappeared
- phosphorylation of Thr172 on AMPK, ACC1 Ser80 and Raptor Ser792 (AMPK): increased
- AMPK activation and CoMP formation (HepG2 cells [4]; 30 μM cordycepin or below): neither AMPK activation nor CoMP formation was observed
- decrease in cellular ADP content (HepG2 cells [4]; 1 mM cordycepin): 14 fold
- decrease in cellular AMP content (HepG2 cells [4]; 1 mM cordycepin): 5 fold
- drop in cellular ATP content (HepG2 cells [4]; 1 mM cordycepin): 100 fold
- EC50 [5]: 81 ± 4 µM
